System: 460 barcoded cancer cell lines
Assay: PRISM pooled barcoded cancer cell line growth screen, 10-point dose-response, 5 days, AUC
Assay type: cell-based
Set-up: scale not given here
From the text: Several small molecule inhibitors of distinct protein domains of EP300/CBP are available, though the majority target the histone acetyltransferase domain (HAT) or bromodomain (BRD)[5],[10],[21],[22]. […] We used these tools to investigate the relative contribution of the EP300/CBP BRD or HAT domain to tumor cell growth (Fig. 1a). To do so, we performed 10-point, dose-response growth assays using mixed pools of 460 barcoded cancer cell lines, over five days of treatment in vitro[33],[34]. Growth was measured using an area-under-the-curve (AUC) approach (Supplementary Table 1, Supplementary Fig. 1a). […] Given potential differences in compound penetration and solubility, and to compare the relative cell line and tumor-specific effects of these two compounds in assays performed non-simultaneously, we performed a median normalization of each dataset (Supplementary Table 2).

SMILES: CNC(=O)Nc1ccc2c(c1)CCC21OC(=O)N(CC(=O)N(Cc2ccc(F)cc2)C(C)C(F)(F)F)C1=O (stereo not shown) [Compound A485]
- AUC (MG63, Osteosarcoma): 0.9115
- AUC (MHHES1, Ewing Sarcoma): 0.4553
- AUC (MHHNB11, Neuroblastoma): 0.7182
- AUC (MIAPACA2, Pancreatic Cancer): 0.9009
- AUC (MKN1, Gastric Cancer): 0.9671
- AUC (MKN7, Gastric Cancer): 0.9501
- AUC (MKN45, Gastric Cancer): 0.5235
- AUC (MOLM13, AML): 0.5776
- AUC (MOLM16, AML): 1
- AUC (MOLT3, T-acute leukemia): 0.8162
- AUC (MOLT16, T-acute leukemia): 0.9273
- AUC (MON, Rhabdoid): 0.6327
- AUC (NB1, Neuroblastoma): 0.493
- AUC (NB4, AML): 1
- AUC (NCIH23, Lung Cancer): 0.8307
- AUC (NCIH28, Lung Cancer): 0.8488
- AUC (NCIH82, Lung Cancer): 1
- AUC (NCIH196, Lung Cancer): 0.825
- AUC (NCIH211, Lung Cancer): 0.6824
- AUC (NCIH226, Lung Cancer): 0.8402
- AUC (NCIH292, Lung Cancer): 0.7841
- AUC (NCIH322, Lung Cancer): 0.7616
- AUC (NCIH358, Lung Cancer): 0.8611
- AUC (NCIH441, Lung Cancer): 0.8818
- AUC (NCIH460, Lung Cancer): 0.9648
- AUC (NCIH520, Lung Cancer): 0.9521
- AUC (NCIH524, Lung Cancer): 0.8317
- AUC (NCIH596, Lung Cancer): 0.8954
- AUC (NCIH647, Lung Cancer): 1
- AUC (NCIH650, Lung Cancer): 0.8159
- AUC (NCIH661, Lung Cancer): 0.6677
- AUC (NCIH747, Colon/Colorectal Cancer): 0.838
- AUC (NCIH841, Lung Cancer): 0.8663
- AUC (NCIH1048, Lung Cancer): 0.8631
- AUC (NCIH1299, Lung Cancer): 0.8424
- AUC (NCIH1341, Lung Cancer): 1
- AUC (NCIH1373, Lung Cancer): 0.7413
- AUC (NCIH1437, Lung Cancer): 0.6724
- AUC (NCIH1568, Lung Cancer): 0.921
- AUC (NCIH1573, Lung Cancer): 0.8005
- AUC (NCIH1581, Lung Cancer): 0.7694
- AUC (NCIH1648, Lung Cancer): 0.776
- AUC (NCIH1792, Lung Cancer): 0.691
- AUC (NCIH1793, Lung Cancer): 0.7572
- AUC (NCIH1838, Lung Cancer): 0.8275
- AUC (NCIH1930, Lung Cancer): 1
- AUC (NCIH1944, Lung Cancer): 0.8729
- AUC (NCIH1975, Lung Cancer): 0.8115
- AUC (NCIH2004RT, Rhabdoid): 0.9741
- AUC (NCIH2052, Lung Cancer): 0.6997
- AUC (NCIH2122, Lung Cancer): 0.4802
- AUC (NCIH2170, Lung Cancer): 0.9434
- AUC (NCIH2172, Lung Cancer): 0.8484
- AUC (NCIH2196, Lung Cancer): 0.8734
- AUC (NCIH2228, Lung Cancer): 0.7811
- AUC (NCIH2347, Lung Cancer): 0.6039
- AUC (NCIH2444, Lung Cancer): 0.8316
- AUC (NCO2, CML): 0.8351
- AUC (NIHOVCAR3, Ovarian Cancer): 0.9964
- AUC (NUDHL1, Lymphoma): 0.9213
- AUC (NUGC3, Gastric Cancer): 0.8775
- AUC (OAW42, Ovarian Cancer): 0.7266
- AUC (OC314, Ovarian Cancer): 0.891
- AUC (OC316, Ovarian Cancer): 0.9187
- AUC (OCIAML2, AML): 0.6159
- AUC (OCIAML3, AML): 0.7819
- AUC (OCILY19, Lymphoma): 0.6711
- AUC (OCILY132, T-cell lymphoma): 0.9357
- AUC (OCIM1, AML): 0.6185
- AUC (OE19, Esophageal Cancer): 0.9392
- AUC (OE21, Esophageal Cancer): 0.6998
- AUC (ONCODG1, Ovarian Cancer): 0.9734
- AUC (ONS76, Medulloblastoma): 0.7969
- AUC (OSRC2, Kidney Cancer): 0.9758
- AUC (OV56, Ovarian Cancer): 0.9822
- AUC (OVCAR8, Ovarian Cancer): 0.8889
- AUC (OVISE, Ovarian Cancer): 0.951
- AUC (OVK18, Ovarian Cancer): 0.5397
- AUC (OVKATE, Ovarian Cancer): 0.8663
- AUC (OVTOKO, Ovarian Cancer): 0.8262
- AUC (PANC0203, Pancreatic Cancer): 0.6928
- AUC (PANC0327, Pancreatic Cancer): 0.889
- AUC (PANC0403, Pancreatic Cancer): 0.6894
- AUC (PANC0504, Pancreatic Cancer): 0.8448
- AUC (PANC0813, Pancreatic Cancer): 0.8655
- AUC (PATU8902, Pancreatic Cancer): 0.9465
- AUC (PC3, Prostate Cancer): 0.8494
- AUC (PECAPJ15, Head and Neck Cancer): 0.6653
- AUC (PF382, T-acute leukemia): 0.7674
- AUC (PK1, Pancreatic Cancer): 0.6974
- AUC (PK59, Pancreatic Cancer): 0.9772
- AUC (PSN1, Pancreatic Cancer): 0.6172
- AUC (RCM1, Colon/Colorectal Cancer): 0.8245
- AUC (RD, Rhabdomyosarcoma): 0.8188
- AUC (RDES, Ewing Sarcoma): 0.6507
- AUC (RERFLCAI, Lung Cancer): 0.874
- AUC (RERFLCKJ, Lung Cancer): 0.7393
- AUC (RH4, Rhabdomyosarcoma): 0.678
- AUC (RH28, Rhabdomyosarcoma): 1
- AUC (RH36, Rhabdomyosarcoma): 1
- AUC (RHJT, Rhabdomyosarcoma): 1
- AUC (RI1, B-cell Lymphoma): 0.6781
- AUC (RL952, Endometrial/Uterine Cancer): 0.946
- AUC (RL, B-cell Lymphoma): 0.7056
- AUC (RPMI8402, T-acute leukemia): 0.6488
- AUC (RT4, Bladder Cancer): 0.8068
- AUC (RVH421, Melanoma): 0.6261
- AUC (S117, Thyroid Sarcoma): 0.733
- AUC (SAOS2, Osteosarcoma): 0.6843
- AUC (SCABER, Bladder Cancer): 0.7254
- AUC (SCC9, Head and Neck Cancer): 0.6982
- AUC (SCC25, Head and Neck Cancer): 0.8637
- AUC (SCLC21H, Lung Cancer): 0.7482
- AUC (SEM, B-cell Leukemia): 0.591
- AUC (SF539, Glioma): 0.7626

Reference: paper PMC11045757, “Group 3 medulloblastoma transcriptional networks collapse under domain specific EP300/CBP inhibition” (Nature Communications, 2024)
